From patent US12441742B2, “Naphthyridine compounds as inhibitors of KRAS” (Incyte Corporation, priority 2021, dated 2025)

Tests used:
[1] = target: T1, KRAS G12C (Homo sapiens, UniProt P01116, G12C); test: KRAS_G12C cellular pERK HTRF assay; assay type: cell-based; set-up: host or cells: MIA PaCa-2; details: MIA PaCa-2 (KRAS G12C), 4 hours; read-out: G12C_pERK (KRAS_G12C pERK assay IC50)
Method: MIA PaCa-2 (KRAS G12C; ATCC® CRL-1420), A427 (KRAS G12D; ATCC® HTB53), HPAF-II (KRAS G12D; ATCC® CRL-1997) and NCI-H838 (KRAS WT; ATCC® CRL-5844) cells are purchased from ATCC and maintained in RPMI 1640 media supplemented with 10% FBS (Gibco/Life Technologies). The cells are plated at 5000 cells per well (8 uL) into Greiner 384-well low volume, flat-bottom, tissue culture treated white plates and incubated overnight at 37° C., 5% CO2. The next morning, test compound stock solutions are diluted in media at 3x the final concentration, and 4 uL are added to the cells. The plate is mixed by gentle rotation for 30 seconds (250 rpm) at room temperature. The cells are incubated with the KRAS G12C and G12D compounds for 4 hours or 2 hours respectively at 37° C., 5% CO2.
4 uL of 4x lysis buffer with blocking reagent (1:25) (Cisbio) are added to each well and plates are rotated gently (300 rpm) for 30 minutes at room temperature. 4 uL per well of Cisbio anti Phospho-ERK 1/2 d2 is mixed with anti Phospho-ERK 1/2 Cryptate (1:1) are added to each well, mixed by rotation and incubated overnight in the dark at room temperature. Plates are read on the Pherastar plate reader at 665 nm and 620 nm wavelengths. IC50 determination is performed by fitting the curve of inhibitor percent inhibition versus the log of the inhibitor concentration using the GraphPad Prism 7 software.

[2] = target: T1, KRAS G12C; test: KRAS_G12C GDP-GTP exchange assay (bodipy-GDP/GppNHp, SOS1); assay type: biochemical; details: bodipy-loaded KRAS G12C, 2 hours pre-incubation, 2 hours exchange; read-out: G12C_exchange (KRAS_G12C exchange assay IC50)
Method: The inhibitor potency of the exemplified compounds was determined in a fluorescence based guanine nucleotide exchange assay, which measures the exchange of bodipy-GDP (fluorescently labeled GDP) for GppNHp (Non-hydrolyzable GTP analog) to generate the active state of KRAS in the presence of SOS1 (guanine nucleotide exchange factor). Inhibitors were serially diluted in DMSO and a volume of 0.1 μL was transferred to the wells of a black low volume 384-well plate. 5 μL/well volume of bodipy-loaded KRAS G12C diluted to 5 nM in assay buffer (25 mM Hepes pH 7.5, 50 mM NaCl, 10 mM MgCl2 and 0.01% Brij-35) was added to the plate and pre-incubated with inhibitor for 2 hours at ambient temperature. Appropriate controls (enzyme with no inhibitor or with a G12C inhibitor (AMG-510)) were included on the plate. The exchange was initiated by the addition of a 5 μL/well volume containing 1 mM GppNHp and 300 nM SOS1 in assay buffer. The 10 μL/well reaction concentration of the bodipy-loaded KRAS G12C, GppNHp, and SOS1 were 2.5 nM, 500 uM, and 150 nM, respectively. The reaction plates were incubated at ambient temperature for 2 hours, a time estimated for complete GDP-GTP exchange in the absence of inhibitor. Internal compounds with confirmed binding were used as positive controls in the assay plates. Fluorescence intensities were measured on a PheraStar plate reader instrument (BMG Labtech) with excitation at 485 nm and emission at 520 nm.
Either GraphPad prism or XLfit was used to analyze the data. The IC50 values were derived by fitting the data to a four parameter logistic equation producing a sigmoidal dose-response curve with a variable Hill coefficient. Prism equation: Y=Bottom+(Top−Bottom)/(1+10^((Log IC50−X)*Hill slope)); XLfit equation: Y=(A+((B−A)/(1+((X/C)^D)))) where X is the logarithm of inhibitor concentration and Y is the response.

T1 sequence (P01116 1-188 isoform P01116-2 G12C): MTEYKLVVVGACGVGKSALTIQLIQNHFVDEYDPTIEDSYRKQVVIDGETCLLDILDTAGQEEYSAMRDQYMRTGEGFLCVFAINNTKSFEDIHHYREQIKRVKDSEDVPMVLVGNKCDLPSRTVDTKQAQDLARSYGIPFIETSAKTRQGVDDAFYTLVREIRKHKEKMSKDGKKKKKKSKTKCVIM

| IC50 [1] [nM] | IC50 [2] [nM] | Structure (SMILES) |
| --- | --- | --- |
| 100 to 1000 | ≤ 100 | C=C(F)C(=O)N1CC[C@H](n2nnc3c(N4CC(N(C)CC)C4)nc4c(F)c(-c5cccc6cccc(C#N)c56)ncc4c32)C[C@H]1CC#N [Example 14, 8-(1-((2S,4S)-2-(cyanomethyl)-1-(2-fluoroacryloyl)piperidin-4-yl)-4-(3-(ethyl(methyl)amino)azetidin-1-yl)-6-fluoro-1H-[1,2,3]triazolo[4,5-c][1,6]naphthyridin-7-yl)-1-naphthonitrile] |
|  | ≤ 100 | C=C(F)C(=O)N1CC[C@H](n2nnc3c(N4CC(N(C)CC)C4)nc4c(F)c(-c5n[nH]c6cc(C)c(C)cc56)ncc4c32)C[C@H]1CC#N [Example 13, 2-((2S,4S)-4-(7-(5,6-dimethyl-1H-indazol-3-yl)-4-(3-(ethyl(methyl)amino)azetidin-1-yl)-6-fluoro-1H-[1,2,3]triazolo[4,5-c][1,6]naphthyridin-1-yl)-1-(2-fluoroacryloyl)piperidin-2-yl)acetonitrile] |
| ≤ 100 | ≤ 100 | CCN(C)C1CN(c2nc3c(F)c(-c4cccc5cccc(C#N)c45)ncc3c3c2nnn3[C@H]2CCN(C(=O)/C=C/CF)[C@H](CC#N)C2)C1 [Example 15, 8-(1-((2S,4S)-2-(cyanomethyl)-1-((E)-4-fluorobut-2-enoyl)piperidin-4-yl)-4-(3-(ethyl(methyl)amino)azetidin-1-yl)-6-fluoro-1H-[1,2,3]triazolo[4,5-c][1,6]naphthyridin-7-yl)-1-naphthonitrile] |
| 100 to 1000 | ≤ 100 | CCN(C)C1CN(c2nc3c(F)c(-c4ccc(F)c5cccnc45)ncc3c3c2nnn3[C@H]2CCN(C(=O)/C=C/CF)[C@H](CC#N)C2)C1 [Example 12, 2-((2S,4S)-4-(4-(3-(ethyl(methyl)amino)azetidin-1-yl)-6-fluoro-7-(5-fluoroquinolin-8-yl)-1H-[1,2,3]triazolo[4,5-c][1,6]naphthyridin-1-yl)-1-((E)-4-fluorobut-2-enoyl)piperidin-2-yl)acetonitrile] |
